# Results published in US9676771B2, “Compounds for inhibiting drug-resistant strains of HIV-1 integrase” (priority 2013, dated 2017).
# Read-outs that look alike come from different tables or passages of the source.
# Target: HIV-1 integrase (Human immunodeficiency virus type 1 group M subtype B, UniProt P12497)
# Test: biochemical
# Type: biochemical
# Protocol: In Vitro Integrase Assay.
# Integrase reactions were carried out by adding drugs or an equivalent volume of 100% dimethyl sulfoxide (DMSO; used as the drug solvent) to a mixture of 20 nM DNA and 400 nM integrase in 50 mM morpholinepropanesulfonic acid (pH 7.2), 7.5 mM MgCl2, and 14 mM 2-mercaptoethanol. Reactions were performed at 37° C. for 2 h and quenched by the addition of an equal volume of loading buffer (formamide containing 1% sodium dodecyl sulfate, 0.25% bromophenol blue, and xylene cyanol). […] Dried gels were visualized using a Typhoon 8600 (GE Healthcare, Piscataway, N.J.). Densitometric analyses were performed using ImageQuant 5.1 software from GE Healthcare.
# [1] = Table 4, 3′-processing, read-out: IC50 (3^+-Processing)
# [2] = Table 4, strand transfer, read-out: IC50 (Strand Transfer)
# [3] = Table 1, 3′-processing, read-out: IC50 Values 3′-Processing
# [4] = Table 1, strand transfer, read-out: IC50 Values Strand transfer
SMILES,IC50 [1] [µM],IC50 [2] [µM],IC50 [3] [µM],IC50 [4] [µM]
"O=C(NCc1ccc(F)cc1F)c1c(O)c2ccc(N3CCCCC3)nc2n(O)c1=O [XZ409, N-(2,4-difluorobenzyl)-1,4-dihydroxy-2-oxo-7-(piperidin-1-yl)-1,2-dihydro-1,8-naphthyridine-3-carboxamide]",> 333,70 ± 16,–,–
"O=C(NCc1ccc(F)c(F)c1)c1c(O)c2cccnc2[nH]c1=O [XZ368, N-(3,4-difluorobenzyl)-4-hydroxy-2-oxo-1,2-dihydro-1,8-naphthyridine-3-carboxamide]",–,–,93 ± 8,8.1 ± 1.8
"O=C(NCc1ccc(F)cc1F)c1cc2cccc(O)c2n(O)c1=O [XZ369, N-(2,4-difluorobenzyl)-1,8-dihydroxy-2-oxo-1,2-dihydroquinoline-3-carboxamide]",–,–,43 ± 5,18 ± 7
"O=C(NCc1ccc(F)cc1F)c1cc2ccccc2n(O)c1=O [XZ353, N-(2,4-difluorobenzyl)-1-hydroxy-2-oxo-1,2-dihydroquinoline-3-carboxamide]",–,–,> 333,19.7 ± 2.7
"O=C(NCc1ccc(F)cc1F)c1c(O)c2ccc(N3CCOCC3)nc2n(O)c1=O [XZ412, N-(2,4-difluorobenzyl)-1,4-dihydroxy-7-morpholino-2-oxo-1,2-dihydro-1,8-naphthyridine-3-carboxamide]",> 333,1.9 ± 0.2,–,–
"O=C(NCc1ccc(F)cc1F)c1c(O)c2cccnc2[nH]c1=O [XZ352, N-(2,4-difluorobenzyl)-4-hydroxy-2-oxo-1,2-dihydro-1,8-naphthyridine-3-carboxamide]",–,–,> 333,7.1 ± 1.8
"O=C(NCc1ccc(F)c(Cl)c1)c1cc2cccc(O)c2n(O)c1=O [XZ374, N-(3-chloro-4-fluorobenzyl)-1,8-dihydroxy-2-oxo-1,2-dihydroquinoline-3-carboxamide]",–,–,17 ± 1,0.53 ± 0.13
"Nc1c(C(=O)NCc2ccc(F)cc2F)c(=O)n(O)c2nc(N3CCOCC3)ccc12 [XZ413, 4-amino-N-(2,4-difluorobenzyl)-1-hydroxy-7-morpholino-2-oxo-1,2-dihydro-1,8-naphthyridine-3-carboxamide]",> 333,54 ± 10,–,–
"Nc1c(C(=O)NCc2ccc(F)cc2F)c(=O)n(O)c2nc(N3CCCCC3)ccc12 [XZ410, 4-amino-N-(2,4-difluorobenzyl)-1-hydroxy-2-oxo-7-(piperidin-1-yl)-1,2-dihydro-1,8-naphthyridine-3-carboxamide]",> 333,54 ± 18,–,–
"COC(=O)CNc1c(C(=O)NCc2ccc(F)cc2F)c(=O)n(O)c2nc(N3CCCCC3)ccc12 [XZ411, methyl 2-((3-((2,4-difluorobenzyl)carbamoyl)-1-hydroxy-2-oxo-7-(piperidin-1-yl)-1,2-dihydro-1,8-naphthyridin-4-yl)amino)acetate]",–,96 ± 40,–,–
"O=C(NCc1ccc(F)c(F)c1)c1cc2cccc(O)c2n(O)c1=O [XZ375, N-(3,4-difluorobenzyl)-1,8-dihydroxy-2-oxo-1,2-dihydroquinoline-3-carboxamide]",–,–,24 ± 3,0.78 ± 0.22
"O=C(NCc1ccc(F)c(Cl)c1)c1c(O)c2cccnc2[nH]c1=O [XZ366, N-(3-chloro-4-fluorobenzyl)-4-hydroxy-2-oxo-1,2-dihydro-1,8-naphthyridine-3-carboxamide]",–,–,125 ± 15,7.8 ± 1.1
"COC(=O)CNc1c(C(=O)NCc2ccc(F)cc2F)c(=O)n(O)c2nc(N3CCOCC3)ccc12 [XZ414, methyl 2-((3-((2,4-difluorobenzyl)carbamoyl)-1-hydroxy-7-morpholino-2-oxo-1,2-dihydro-1,8-naphthyridin-4-yl)amino)acetate]",–,6.2 ± 0.8,–,–
"O=C(NCc1ccc(F)cc1)c1c(O)c2cccnc2[nH]c1=O [XZ364, N-(4-fluorobenzyl)-4-hydroxy-2-oxo-1,2-dihydro-1,8-naphthyridine-3-carboxamide]",–,–,136 ± 16,5.1 ± 1.5
"COc1cccc2cc(C(=O)NCc3ccc(F)cc3F)c(=O)n(O)c12 [XZ370, N-(2,4-difluorobenzyl)-1-hydroxy-8-methoxy-2-oxo-1,2-dihydroquinoline-3-carboxamide]",–,–,> 333,> 333
